Here are results for 16 compounds from patent US6169181A, “Compounds useful to treat retroviral infections” (Pharmacia & Upjohn Company, priority 1998, dated 2001).

Test [1] deals with HIV-1 protease (Human immunodeficiency virus type 1 group M subtype B, UniProt P04585). Nature of the test: biochemical. The conditions noted are these: Table II, enzyme HIV-1. The essentials:
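Percent inhibition came from fluorescence of FITC-tagged cleavage product, separated by filtration from uncleaved substrate captured on streptavidin-coated beads. The enzyme (10 μl of 0.1 μM) and compound acted on a biotin/FITC dual-labelled peptide for one hour at room temperature in the dark. The reaction ran in 0.1 M sodium acetate, pH 5.5, with 1.0 M NaCl and 0.05% NP-40.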

The target of test [2] is T1, single chain tethered (tandem) HIV protease (HIV-1 M:B_HXB2R, UniProt P04585).
T1 construct: purified enzyme, FITC/biotin substrate assay
As to the kind of experiment: Tandem HIV protease assay. Type of test: biochemical. The conditions noted are these: Table II, enzyme HIV1TANDEM; for Ki: read-out: FITC KI. Here is the method:
In the enzyme inhibition assay described above, the sensitivity of Ki value determination is in part limited by the ability to continue to lower the enzyme concentration for compounds with high binding affinity. To prevent de-dimerization at low enzyme concentration, a tandemly linked enzyme is prepared in which the two monomers are covalently linked by an appropriate stretch of amino acid residues. Using the latter enzyme, the sensitivity of the inhibition assay is improved since much lower enzyme concentration can be utilized, as compared to the condition using the wild-type enzyme.
The starting inhibitor concentrations are determined based on preliminary enzyme inhibition screening results which estimate the expected potency of the inhibitor. Inhibitor concentrations are then prepared using the Biomek 1000 (Beckman) and the Quadra 96 (Tomtec). Substrate (biotinylated at the amino terminal arginine and fluorescently labeled with fluorescein at the carboxyl terminal lysine), inhibitor and the tandem enzyme are allowed to react in solution at pH 5.5 (buffers identical to those used with the native dimeric enzyme) in the dark for 96 hours. Streptavidin coated polystyrene beads are added to stop the reaction. The labeled cleavage product is separated from unreacted substrate via filtration. Residual fluorescence is quantitated with the Idexx SM2000 (Idexx) and the resulting data are analyzed using the NLLSF program.

Values joined by “and” are separate entries in the source; they are usually repeats but may differ in a detail not shown here. Equal entries are not always repeated.

With `CC(C)CC1(CC(C)C)CC(O)=C(C(c2cccc(NS(=O)(=O)c3cn(C)cn3)c2)C(C)(C)C)C(=O)O1` (racemic) [Example 305, N-[3-(1-[5,6-Dihydro-6,6-diisobutyl-4-hydroxy-2-oxo-2H-pyran-3-yl]-2,2-dimethylpropyl)-phenyl]-1-methyl-1H-imidazole-4-sulfonamide], the “PROTEASE % INHIB.” value amounted to 99.99% in test [1] (DOSE 0.123 (unit not given)); 110.76% in test [1] (DOSE 0.370 (unit not given)); 114.35% in test [1] (DOSE 1.100 (unit not given)); 110.88% in test [1] (DOSE 3.300 (unit not given)); 102.01% in test [1] (DOSE 10.000 (unit not given)); 57.83% in test [1] (DOSE 30.000 (unit not given)). For the same compound, in test [2], the Ki (usually a measure of affinity in units of concentration, obtained from inhibition or displacement) came out at 0.4 nM.

Regarding `CC(C)CC1(CC(C)C)CC(O)=C(C(c2cccc(NS(=O)(=O)c3ccc(C#N)cn3)c2)C(C)(C)C)C(=O)O1` (racemic) [Example 306, 5-Cyano-N-[3-(1-[5,6-dihydro-6,6-diisobutyl-4-hydroxy-2-oxo-2H-pyran-3-yl]-2,2-dimethylpropyl)-phenyl]-2-pyridinesulfonamide], the “PROTEASE % INHIB.” value came out at 71.79% in test [1] (DOSE 0.123 (unit not given)); 82.71% in test [1] (DOSE 0.370 (unit not given)); 89.3% in test [1] (DOSE 1.100 (unit not given)); 97.29% in test [1] (DOSE 3.300 (unit not given)); 82.59% in test [1] (DOSE 10.000 (unit not given)); 53.43% in test [1] (DOSE 30.000 (unit not given)). Besides, the Ki in test [2] was 0.04 nM.

With `Cn1cnc(S(=O)(=O)Nc2cccc(C(C3=C(O)CC(CCc4ccccc4)(CCC(F)(F)F)OC3=O)C(C)(C)C)c2)c1` (single isomer, unassigned) [Example 270, N-[3-(R or S)-[1-[5,6-dihydro-4-hydroxy-2-oxo-6-(R or S)-(2-phenethyl)-6-(3,3,3-trifluoropropyl)-2H-pyran-3-yl]-2,2-dimethylpropyl]phenyl]-1-methyl-1H-imidazole-4-sulfonamide], the “PROTEASE % INHIB.” value in test [1] (DOSE 0.123 (unit not given)) was 75.26%; in test [1] (DOSE 0.370 (unit not given)), 85.62%; in test [1] (DOSE 1.100 (unit not given)), 93.45%; in test [1] (DOSE 3.300 (unit not given)) it was 96.62%; in test [1] (DOSE 10.000 (unit not given)), 94.57%; in test [1] (DOSE 30.000 (unit not given)), 82.67%. The inhibitory constant (Ki) in test [2] stood at 0.024 nM.

For the compound `Cn1cnc(S(=O)(=O)Nc2cccc(C(C3=C(O)CC(CCc4ccccc4)(CCC(F)(F)F)OC3=O)C(C)(C)C)c2)c1` (single isomer, unassigned) [Example 273, N-[3-(R or S)-[1-[5,6-dihydro-4-hydroxy-2-oxo-6-(R or S)-(2-phenethyl)-6-(3,3,3-trifluoropropyl)-2H-pyran-3-yl]-2,2-dimethylpropyl]phenyl]-1-methyl-1H-imidazole-4-sulfonamide], the “PROTEASE % INHIB.” value is listed as less than 10% in test [1] (DOSE 0.123 (unit not given)); 23.24% in test [1] (DOSE 0.370 (unit not given)); 75.38% in test [1] (DOSE 1.100 (unit not given)); 94.63% in test [1] (DOSE 3.300 (unit not given)); 95.93% in test [1] (DOSE 10.000 (unit not given)); 91% in test [1] (DOSE 30.000 (unit not given)). Moreover, the inhibition constant Ki in test [2] was 2.3 nM.

For the compound `CCC[C@@]1(CCc2ccccc2)CC(O)=C([C@@H](c2cccc(NS(=O)(=O)c3ccc(C#N)cn3)c2)C(C)(C)C)C(=O)O1` (single isomer, unassigned) [Example 302, 5-Cyano-N-[3(R or S)-(1-[5,6-dihydro-4-hydroxy-2-oxo-6(R or S)-(2-phenylethyl)-6-propyl-2H-pyran-3-yl]-2,2-dimethylpropyl)-phenyl]-2-pyridinesulfonamide], in test [2], the inhibition constant Ki is 1.87 nM and 3.6 nM.

Take `CCC[C@@]1(CCc2ccccc2)CC(O)=C([C@@H](c2cccc(NS(=O)(=O)c3ccc(N)cn3)c2)C(C)(C)C)C(=O)O1` (single isomer, unassigned) [Example 312, 5-Amino-N-[3(R or S)-(1-[5,6-dihydro-4-hydroxy-2-oxo-6(R or S)-(2-phenylethyl)-6-propyl-2H-pyran-3-yl]-2,2-dimethylpropyl)-phenyl]-2-pyridinesulfonamide]: the inhibition constant Ki in test [2] worked out at 0.255 nM.

As for `CCCC1(CCC)CC(O)=C(C(c2cccc(NS(=O)(=O)c3ccc(N)cn3)c2)C(C)(C)C)C(=O)O1` (single isomer, unassigned) [Example 320, 5-Amino-N-[3(R or S)-(1-[5,6-dihydro-6,6-dipropyl-4-hydroxy-2-oxo-2H-pyran-3-yl]-2,2-dimethyl-propyl)phenyl]-2-pyridine sulfonamide], the Ki in test [2] was 0.071 nM and 0.05 nM and 0.075 nM.

On to `CCCC1(CCC)CC(O)=C(C(c2cccc(NS(=O)(=O)c3ccc(C#N)cn3)c2)C(C)(C)C)C(=O)O1` (single isomer, unassigned) [Example 322, 5-Cyano-N-[3(R or S)-(1-[5,6-dihydro-6,6-dipropyl-4-hydroxy-2-oxo-2H-pyran-3-yl]-2,2-dimethyl-propyl)phenyl]-2-pyridine-sulfonamide], for which, in test [2], the Ki was 1.07 nM and 1.29 nM.

Consider `CCC(C1=C(O)CC(CCc2ccccc2)(CCc2ccccc2)OC1=O)c1cccc(NS(=O)(=O)c2cn(C)cn2)c1` (single isomer, unassigned) [Example 324, N-[3(R or S)-(1-[6,6-Bis(2-phenyl-ethyl)-5,6-dihydro-4-hydroxy-2-oxo-2H-pyran-3-yl]propyl)phenyl]-1-methyl-1H-imidazole-4-sulfonamide], for which, in test [2], the inhibition constant Ki came to 0.156 nM.

Take `CCC(C1=C(O)CC(CCc2ccccc2)(CCc2ccccc2)OC1=O)c1cccc(NS(=O)(=O)c2ccc(C#N)cn2)c1` (single isomer, unassigned) [Example 326, N-[3(R or S)-(1-[6,6-Bis(2-phenyl-ethyl)-5,6-dihydro-4-hydroxy-2-oxo-2H-pyran-3-yl]propyl)phenyl]-5-cyano-2-pyridinesulfonamide]: in test [2], the inhibitory constant (Ki) came out at 0.029 nM.

In the case of `Cn1cnc(S(=O)(=O)Nc2cccc(C(C3=C(O)CC(CCc4ccccc4)(CCc4ccccc4)OC3=O)C(C)(C)C)c2)c1` (single isomer, unassigned) [Example 357, N-[3-{1(R or S)-(4-Hydroxy-5,6-dihydro-2-oxo-6,6-bis(2-phenylethyl)-2H-pyran-3-yl)-2,2-dimethylpropyl}phenyl]-1-methyl-1H-imidazole-4-sulfonamide], the inhibition constant (Ki) in test [2] amounted to 48.5 nM.

Turning to `CC(C)(C)C(C1=C(O)CC(CCc2ccccc2)(CCc2ccccc2)OC1=O)c1cccc(NS(=O)(=O)c2ccc(C#N)cn2)c1` (single isomer, unassigned) [Example 359, N-[3-{1(R or S)-(4-Hydroxy-5,6-dihydro-2-oxo-6,6-bis(2-phenylethyl)-2H-pyran-3-yl)-2,2-dimethylpropyl}phenyl]-5-cyanopyridine-2-sulfonamide], the Ki in test [2] amounted to 16.4 nM.

Consider `CCCC1(CCC)CC(O)=C(C(CC)c2cccc(NS(=O)(=O)c3ccc(N)cn3)c2)C(=O)O1` (single isomer, unassigned) [Example 363, N-[3-{1(R or S)-(4-Hydroxy-5,6-dihydro-2-oxo-6,6-dipropyl-2H-pyran-3-yl)-propyl}phenyl]-5-aminopyridine-2-sulfonamide], for which the inhibition constant Ki in test [2] came to 0.083 nM.

Regarding `CCC[C@@]1(CCc2ccc(F)cc2)CC(O)=C([C@H](CC)c2cccc(NS(=O)(=O)c3ccc(C#N)cn3)c2)C(=O)O1` (single isomer, unassigned) [Example 365, N-[3-{1(R or S)-(4-Hydroxy-5,6-dihydro-2-oxo-6(R or S)-(2-(4-fluorophenyl)ethyl)-6-propyl-2H-pyran-3-yl)propyl}phenyl]-5-cyanopyridine-2-sulfonamide], the inhibitory constant (Ki) in test [2] turned out to be 0.023 nM.

Take `CCC[C@@]1(CCc2ccc(F)cc2)CC(O)=C([C@H](CC)c2cccc(NS(=O)(=O)c3cn(C)cn3)c2)C(=O)O1` (single isomer, unassigned) [Example 368, N-[3-{1(R or S)-(4-Hydroxy-5,6-dihydro-2-oxo-6(R or S)-(2-(4-fluorophenyl)ethyl)-6-propyl-2H-pyran-3-yl)propyl}phenyl]-1-methyl-1H-imidazole-4-sulfonamide]: the Ki in test [2] is 0.232 nM.

As to `CCCC1(CCc2ccccc2)CC(O)=C([C@@H](CC)c2cccc(NS(=O)(=O)c3ccc(C(F)(F)F)cn3)c2)C(=O)O1` (stereo partly drawn) [Example 374, N-[3-[1-(S)-[5,6,-Dihydro-4-hydroxy-2-oxo-6-(2-phenylethyl)-6-propyl-2H-pyran-3-yl]propyl]phenyl]-5-(triflouromethyl)-2-pyridinesulfonamide], the “PROTEASE % INHIB.” value is recorded as 78.97% in test [2] (DOSE 0.123 (unit not given)); 82.14% in test [2] (DOSE 0.370 (unit not given)); 84.98% in test [2] (DOSE 1.100 (unit not given)); 87.70% in test [2] (DOSE 3.300 (unit not given)); 95.25% in test [2] (DOSE 10.000 (unit not given)); 80.11% in test [2] (DOSE 30.000 (unit not given)). The Ki in test [2] turned out to be 0.031 nM.
